Test results: patent US20110151534A1, “[…] ORGANIC COMPOUNDS USING R[…] […] HALIDE TRANSFERASE” (priority 2007, published 2011)

What was measured:
[1] = biological target: methyl halide transferase (Batis maritima, UniProt Q9ZSZ7); details: halide ion as substrate; Attieh et al. 1995, Ni and Hager 1999; cited from earlier work
[2] = test system: S. cerevisiae W303a; assay: Methyl iodide toxicity assay in yeast; assay type: cell-based, Saccharomyces cerevisiae; details: OD600 at 24 hours of growth, commercially available CH3I added
From the text: (§1) FIG. 11A-D: Methyl iodide production in recombinant S. cerevisiae. FIG. 11A. CH3I production pathway. The B. maritima MHT is expressed with a N-terminal vacuole targeting tag. The […] MHT methylates iodide ions using SAM as a methyl donor. FIG. 11B, CH3I measured in culture headspace over time. Activity on glucose-grown cells is shown. FIG. 11C, CH3I yields in grams per liter of culture per day. Values for the culturable red algae E. muricata are taken from the literature. Yields from B. maritima MHT-expressing E. coli and S. cerevisiae are calculated by comparison to standard curves. FIG. 11D, CH3I toxicity in yeast. Exponential phase cultures were diluted to an OD600 of 0.05 and commercially available CH3I was added. OD600 was measured at 24 hours of growth. The W303a lab strain is shown in filled boxes, the DNA methylation-sensitive RAD50Δ mutant is shown in open boxes.
(§2) Individual colonies were inoculated in YP media with 2% glucose and grown overnight. Cultures were diluted to an OD600 of 0.05 and methyl iodide was added to the specified amount. […] OD600 was measured by spectrometry with YP media used as a blank. Each data point was performed in triplicate. The RAD50Δ mutant was obtained from the Saccharomyces Genome Deletion Project (Invitrogen).

[3] = test system: RAD50Δ mutant; assay type: cell-based, Saccharomyces cerevisiae; details: RAD50Δ mutant compared with W303a
From the text: as §1, §2

Chain of methyl halide transferase (Q9ZSZ7 1-230): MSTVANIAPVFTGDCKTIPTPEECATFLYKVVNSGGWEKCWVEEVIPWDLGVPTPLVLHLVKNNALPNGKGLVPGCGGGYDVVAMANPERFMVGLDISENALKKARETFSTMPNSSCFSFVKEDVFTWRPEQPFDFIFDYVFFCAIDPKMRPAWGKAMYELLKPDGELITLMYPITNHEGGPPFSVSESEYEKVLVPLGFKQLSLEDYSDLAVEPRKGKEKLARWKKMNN

| Structure (SMILES) | Km [1] [mM] | level up to which yeast were resistant to deleterious methylating effects of methyl iodide [2] [µg/mL] | sensitivity to methyl iodide [3] |
| --- | --- | --- | --- |
| [Br-].[K+] [Br^−, bromide] | 18.5 |  |  |
| I [I^−, iodide] | 8.5 |  |  |
| CI [methyl iodide] |  | > 5000 | increased sensitivity |
